Test results: US7425572B2, “Use of dioxindoindazoles and dioxoloindazoles for treating glaucoma” (Alcon, Inc., priority 2004, dated 2008)
Where a name gives a salt, the structure may show the parent alone.

Tests used:
[1] = target: T1, 5-HT2 receptor (A7r5 rat vascular smooth muscle cells) (Rattus norvegicus, UniProt P14842); assay: 5-HT2 functional assay: [Ca2+]i mobilization (FLIPR); format: cell-based; conditions: for EC50: [Ca2+]i mobilization; for Emax: percentage of maximum 5-HT-induced response, read-out: Efficacy (Emax, %)
T1 construct: endogenous in cells; host or cells: A7r5 rat vascular smooth muscle cells
T1 sequence (P14842 whole entry): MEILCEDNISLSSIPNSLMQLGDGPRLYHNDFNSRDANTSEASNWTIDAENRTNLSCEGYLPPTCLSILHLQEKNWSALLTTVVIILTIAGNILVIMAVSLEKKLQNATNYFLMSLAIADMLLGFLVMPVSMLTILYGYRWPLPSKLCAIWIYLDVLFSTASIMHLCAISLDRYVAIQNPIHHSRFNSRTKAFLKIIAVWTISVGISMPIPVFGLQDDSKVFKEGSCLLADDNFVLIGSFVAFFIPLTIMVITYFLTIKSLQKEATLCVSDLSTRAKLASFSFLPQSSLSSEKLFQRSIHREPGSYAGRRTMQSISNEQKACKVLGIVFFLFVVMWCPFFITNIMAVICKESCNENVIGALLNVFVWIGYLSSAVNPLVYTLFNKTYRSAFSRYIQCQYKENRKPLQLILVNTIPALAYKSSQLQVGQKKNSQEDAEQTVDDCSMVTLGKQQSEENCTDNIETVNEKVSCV
Description: Method 2: 5-HT2 Functional Assay: [Ca^2+]i Mobilization
The receptor-mediated mobilization on intracellular calcium ([Ca^2+]i) was studied using the Fluorescence Imaging Plate Reader (FLIPR) instrument. Rat vascular smooth muscle cells, A7r5, were grown in a normal media of DMEM/10% FBS and 10 μg/mL gentamycin. Confluent cell monolayers were trypsinized, pelleted, and re-suspended in normal media. Cells were seeded in a […] volume at a density of 20,000 cells/well in a black wall, 96-well tissue culture plate and grown for 2 days.
On the day of the experiment, one vial of FLIPR Calcium Assay Kit dye was re-suspended in 50 mL of a FLIPR buffer consisting of Hank's Balanced Salt Solution (HBSS), 20 mM HEPES, and 2.5 mM probenecid, pH 7.4. Cells were loaded with the calcium-sensitive dye by addition of an equal volume (50 μL) to each well of the 96-well plate and incubated with dye for 1 h at 23° C.
Typically, test compounds were stored at 25 μM in 50% DMSO/50% Ethanol solvent. Compounds were diluted 1:50 in 20% DMSO/20% Ethanol. For “hit” screening, compounds were further diluted 1:10 in FLIPR buffer and tested at a final concentration of 10 μM. For dose-response experiments, compounds were diluted 1:50 in FLIPR buffer and serially diluted 1:10 to give a 5- or 8-point dose-response curve.
The compound plate and cell plate were placed in the FLIPR instrument. At the beginning of an experimental run, a signal test was performed to check the basal fluorescence signal from the dye-loaded cells and the uniformity of the signal across the plate. The basal fluorescence was adjusted between 8000-12000 counts by modifying the exposure time, the camera F-stop, or the laser power. Instrument settings for a typical assay were the following: laser power 0.3-0.6 W, camera F-stop F/2, and exposure time 0.4 sec. An aliquot (25 μL) of the test compound was added to the existing 100 μL dye-loaded cells at a dispensing speed of 50 μL/sec. Fluorescence data were collected in real-time at 1.0 sec intervals for the first 60 secs and at 6.0 sec intervals for an additional 120 secs. Responses were measured as peak fluorescence intensity minus basal and where appropriate were expressed as a percentage of a maximum 5-HT-induced response. When the compounds were tested as antagonists against 10 μM 5-HT, they were incubated with the cells for 15 minutes prior to the addition of 5-HT.

[2] = tested on: lasered (hypertensive) eyes of conscious cynomolgus monkeys; assay: Acute IOP response in lasered (hypertensive) eyes of conscious cynomolgus monkeys; format: in vivo; conditions: lasered monkey eye
Description: Method 3: Acute IOP Response in Lasered (Hypertensive) Eyes of Conscious Cynomolgus Monkeys
Intraocular pressure (IOP) can be determined with an Alcon Pneumatonometer after light corneal anesthesia with 0.1% proparacaine. Eyes are washed with saline after each measurement. After a baseline IOP measurement, test compound is instilled in one 30 μL aliquot to the right eyes only of nine cynomolgus monkeys. Vehicle is instilled in the right eyes of six additional animals. Subsequent IOP measurements are taken at 1, 3, and 6 hours.
The above method was used to determine the IOP lowering efficacy of the compound of Example 1 (dosed at a concentration of 300 μg).

[3] = 1 hr after topical dose of 300 μg
[4] = 3 hrs after topical dose of 300 μg
[5] = 6 hrs after topical dose of 300 μg

## C[C@H](N)Cn1ncc2ccc3c(c21)OCCO3 [Example 3, (S)-2-(7,8-Dihydro-[1,4]dioxino[2,3-g]indazol-1-yl)-1-methyl-ethylamine hydrochloride]
[1]
  EC50: 0.027 µM
  Emax: 92%

## C[C@H](N)Cn1ncc2ccc3c(c21)O[C@H](CO)CO3.Cl [Example 2, [(R)-1-((S)-2-Aminopropyl)-7,8-dihydro-1H-[1,4]dioxino[2,3-g]indazol-8-yl]-methanol hydrochloride]
[1]
  EC50: 0.053 µM
  Emax: 77%
other
  melting point: 112 to 116 °C

## COC(=O)NC[C@H]1COc2ccc3cnn(C[C@H](C)N)c3c2O1.Cl [Example 7, [(S)-1-((S)-2-Amino-propyl)-7,8-dihydro-1H-[1,4]dioxino[2,3-g]indazol-8-ylmethyl]-carbamic acid methyl ester hydrochloride]
[1]
  EC50: 0.092 µM
  Emax: 66%
other
  melting point: 265 to 266 °C

## C[C@H](N)Cn1ncc2ccc3c(c21)O[C@@H](CO)CO3 [Example 1, [(S)-1-((S)-2-Amino-propyl)-7,8-dihydro-1H-[1,4]dioxino[2,3-g]indazol-8-yl]-methanol hydrochloride]
[1]
  EC50: 0.031 µM
  Emax: 39%
[2]; [3]
  IOP % change: −4.3%
  IOP Change mmHg: −2.2 mmHg
[2]; [4]
  IOP % change: −15.8%
  IOP Change mmHg: −6.8 mmHg
[2]; [5]
  IOP % change: −23.6%
  IOP Change mmHg: −9.6 mmHg

## C[C@H](N)Cn1ncc2ccc3c(c21)O[C@@H](CNS(C)(=O)=O)CO3.Cl [Example 4, N-[(S)-1-((S)-2-Amino-propyl)-7,8-dihydro-1H-[1,4]dioxino[2,3-g]indazol-8-ylmethyl]-methanesulfonamide hydrochloride]
[1]
  EC50: 0.078 µM
  Emax: 81%
other
  melting point: 235 to 236 °C

## CCS(=O)(=O)NC[C@H]1COc2ccc3cnn(C[C@H](C)N)c3c2O1.Cl [Example 5, Ethanesulfonic acid [(S)-1-((S)-2-amino-propyl)-7,8-dihydro-1H-[1,4]dioxino[2,3-g]indazol-8-ylmethyl]-amide hydrochloride]
[1]
  EC50: 0.067 µM
  Emax: 82%
other
  melting point: 243 to 244 °C

## CC(C)C(=O)NC[C@H]1COc2ccc3cnn(C[C@H](C)N)c3c2O1 [Example 6, N-[(S)-1-((S)-2-Amino-propyl)-7,8-dihydro-1H-[1,4]dioxino[2,3-g]indazol-8-ylmethyl]-isobutyramide hydrochloride]
[1]
  EC50: 0.125 µM
  Emax: 59%

## COC(=O)NC[C@@H]1COc2ccc3cnn(C[C@H](C)N)c3c2O1 [Example 9, [(R)-1-((S)-2-Amino-propyl)-7,8-dihydro-1H-[1,4]dioxino[2,3-g]indazol-8-ylmethyl]-carbamic acid methyl ester hydrochloride]
[1]
  EC50: 0.106 µM
  Emax: 44%

## C[C@H](N)Cn1ncc2ccc3c(c21)O[C@@H](CN)CO3 [Example 8, (S)-2-((S)-8-Aminomethyl-7,8-dihydro-[1,4]dioxino[2,3-g]indazol-1-yl)-1-methyl-ethylamine hydrochloride]
[1]
  EC50: 0.232 µM
  Emax: 54%

## C[C@H](N)Cn1ncc2ccc3c(c21)O[C@@H](CO)CO3 (as salt: hydrochloride) [Example 1, [(S)-1-((S)-2-Amino-propyl)-7,8-dihydro-1H-[1,4]dioxino[2,3-g]indazol-8-yl]-methanol hydrochloride]
other
  melting point: 202 to 203 °C
